From ChEMBL document CHEMBL1201862, “PubChem BioAssay data set” (2004)
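Grown in 96-well plates, cells were treated for 48 hours with each compound at five concentrations. Insufficient inhibition: endpoint recorded as highest concentration tested. The concentration for 50% growth inhibition is given as GI50.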 Active and inactive are the calls of the source. Cut-off read from the data, not from the text of the source: active = GI50 up to about 1.1 µM and inactive = higher.

Key:
Experiment in all cases: inhibition of tumour cell growth, NCI panel, 48 h
SW-620 = system: SW-620
COLO 205 = system: COLO 205
M14 = system: M14
OVCAR-3 = system: OVCAR-3
A549 = system: A549
NCI-H522 = system: NCI-H522
SR = system: SR
HOP-62 = system: HOP-62
SF-539 = system: SF-539
IGROV-1 = system: IGROV-1
A498 = system: A498
OVCAR-5 = system: OVCAR-5
SNB-19 = system: SNB-19
SK-MEL-5 = system: SK-MEL-5
Malme-3M = system: Malme-3M
TK-10 = system: TK-10
UO-31 = system: UO-31
NCI/ADR-RES = system: NCI/ADR-RES
MDA-MB-231 = system: MDA-MB-231
DU-145 = system: DU-145

Measured: GI50

CN1C(c2ccccc2)CC(=NO)CC1c1ccccc1 (configuration not stated)
inactive: SW-620 48.8 µM | COLO 205 20.2 µM | M14 43 µM | OVCAR-3 39.9 µM | A549 40.9 µM | NCI-H522 25.6 µM | SR 26.9 µM | HOP-62 > 100 µM | SF-539 41.2 µM | IGROV-1 > 100 µM | A498 82 µM | OVCAR-5 67.3 µM | SNB-19 > 100 µM | SK-MEL-5 38.2 µM | Malme-3M 34.8 µM | TK-10 > 100 µM | UO-31 26.4 µM

CN(C)CC1CCCC(CN(C)C)C1OC(=O)c1ccccc1 (configuration not stated)
inactive: SW-620 > 100 µM | COLO 205 > 100 µM | M14 > 100 µM | OVCAR-3 > 100 µM | A549 > 100 µM | NCI-H522 > 100 µM | SR > 100 µM | HOP-62 > 100 µM | SF-539 > 100 µM | IGROV-1 > 100 µM | A498 > 100 µM | OVCAR-5 > 100 µM | SK-MEL-5 > 100 µM | Malme-3M > 100 µM | TK-10 > 100 µM | UO-31 > 100 µM

CC1(C)Cc2cc(C(=O)O)c3c(c2C1=O)COCC3
inactive: SW-620 > 100 µM | COLO 205 > 100 µM | M14 > 100 µM | OVCAR-3 > 100 µM | A549 > 100 µM | NCI-H522 32.4 µM | SR > 100 µM | HOP-62 > 100 µM | SF-539 > 100 µM | IGROV-1 > 100 µM | A498 > 100 µM | OVCAR-5 > 100 µM | SNB-19 > 100 µM | SK-MEL-5 > 100 µM | Malme-3M > 100 µM | TK-10 > 10 µM | UO-31 > 100 µM

CCOc1cccc(/C=N/N=C2\C(=O)Nc3c(Cl)cc(Cl)cc32)c1O
inactive: SW-620 75.9 µM | COLO 205 > 100 µM | M14 73.3 µM | OVCAR-3 36.9 µM | A549 > 100 µM | NCI/ADR-RES 33.3 µM | SR 29.4 µM | HOP-62 30.4 µM | SF-539 53.6 µM | MDA-MB-231 37.2 µM | IGROV-1 74.8 µM | A498 36.6 µM | OVCAR-5 > 100 µM | SNB-19 > 100 µM | SK-MEL-5 64.4 µM | Malme-3M > 100 µM | TK-10 > 100 µM | UO-31 34 µM

COc1cc2c(cc1OC)C1(c3ccc(Cl)cc3)ON=C(c3ccccc3)N1CS2 (configuration not stated)
inactive: SW-620 > 100 µM | COLO 205 > 100 µM | M14 73.8 µM | OVCAR-3 > 100 µM | A549 > 100 µM | NCI-H522 58.9 µM | SR 7.05 µM | HOP-62 > 100 µM | SF-539 > 100 µM | IGROV-1 38.7 µM | A498 83.2 µM | OVCAR-5 > 100 µM | SNB-19 > 100 µM | SK-MEL-5 > 100 µM | Malme-3M > 100 µM | TK-10 > 100 µM | UO-31 27.1 µM

CCOc1ccc(OP2(=O)NC(=O)C=C(C)N2)cc1 (configuration not stated)
inactive: SW-620 > 100 µM | COLO 205 > 100 µM | M14 > 100 µM | OVCAR-3 > 100 µM | A549 > 100 µM | NCI-H522 > 100 µM | SR 48.4 µM | HOP-62 > 100 µM | SF-539 > 100 µM | IGROV-1 > 100 µM | A498 > 100 µM | OVCAR-5 > 100 µM | SNB-19 > 100 µM | SK-MEL-5 > 100 µM | Malme-3M > 100 µM | TK-10 > 100 µM | UO-31 > 100 µM

CN1CCOC(C(NC(=O)c2ccccc2)c2ccccc2)C1=O (configuration not stated)
inactive: SW-620 > 100 µM | COLO 205 > 100 µM | M14 > 100 µM | OVCAR-3 > 100 µM | A549 > 100 µM | NCI-H522 > 100 µM | SR > 100 µM | HOP-62 > 100 µM | SF-539 > 100 µM | IGROV-1 > 100 µM | A498 > 100 µM | OVCAR-5 > 100 µM | SNB-19 > 100 µM | SK-MEL-5 > 100 µM | Malme-3M > 100 µM | TK-10 > 100 µM | UO-31 > 100 µM

O=C(NC1CCCCCC1)C1C(=O)N(C2CCCCCC2)C(=O)/C1=N\O (configuration not stated)
inactive: SW-620 37.6 µM | COLO 205 17.3 µM | M14 32.1 µM | OVCAR-3 17.6 µM | A549 42.8 µM | NCI-H522 19.6 µM | SR 23.8 µM | HOP-62 18.7 µM | SF-539 25.2 µM | IGROV-1 50 µM | A498 32.9 µM | OVCAR-5 50.8 µM | SNB-19 35.2 µM | SK-MEL-5 36.1 µM | Malme-3M 24.4 µM | TK-10 6.12 µM | UO-31 28.4 µM

C[C@@]1(CBr)C[C@@](C)(/C=C/Cl)[C@@H](Cl)C[C@H]1Cl
inactive: SW-620 13.9 µM | COLO 205 13.5 µM | M14 15.5 µM | OVCAR-3 10.8 µM | A549 12.3 µM | NCI-H522 3.31 µM | SR 1.9 µM | HOP-62 14.2 µM | SF-539 14.6 µM | IGROV-1 14.8 µM | A498 16.9 µM | OVCAR-5 13.5 µM | SNB-19 13.5 µM | SK-MEL-5 13.3 µM | Malme-3M 16.4 µM | TK-10 14.7 µM | UO-31 15.6 µM

O=[N+]([O-])c1cc(/C=N\NS(=O)(=O)c2ccc(Cl)cc2)c(O)c([N+](=O)[O-])c1
inactive: SW-620 34.6 µM | COLO 205 16.1 µM | M14 32.4 µM | OVCAR-3 24.4 µM | A549 37.8 µM | NCI-H522 24.5 µM | SR 21 µM | HOP-62 47.3 µM | SF-539 23.3 µM | IGROV-1 74.8 µM | A498 35.7 µM | OVCAR-5 > 100 µM | SNB-19 20.9 µM | SK-MEL-5 27.8 µM | Malme-3M 36.6 µM | TK-10 > 100 µM | UO-31 71.4 µM

Cc1nnc(N/N=C2\C(=O)Nc3ccccc32)n1N
inactive: SW-620 > 100 µM | COLO 205 67.5 µM | M14 > 100 µM | OVCAR-3 > 100 µM | A549 > 100 µM | NCI-H522 > 100 µM | SR > 100 µM | HOP-62 > 100 µM | SF-539 > 100 µM | IGROV-1 > 100 µM | A498 > 100 µM | OVCAR-5 > 100 µM | SNB-19 > 100 µM | SK-MEL-5 > 100 µM | Malme-3M > 100 µM | TK-10 > 100 µM | UO-31 > 100 µM

O=P1(c2ccccc2)c2ccccc2CCc2ccccc21
inactive: SW-620 > 100 µM | COLO 205 > 100 µM | M14 70 µM | OVCAR-3 40.8 µM | DU-145 72.8 µM | A549 86.5 µM | NCI-H522 37.1 µM | HOP-62 > 100 µM | SF-539 > 100 µM | MDA-MB-231 80.7 µM | IGROV-1 > 100 µM | SNB-19 > 100 µM | SK-MEL-5 44.9 µM | TK-10 > 100 µM | UO-31 53.3 µM

O=C(C[n+]1ccccc1)NNC(=O)/C(=C/c1ccc2c(c1)OCO2)NC(=O)c1ccccc1
inactive: SW-620 34.8 µM | COLO 205 > 46.1 µM | M14 48 µM | OVCAR-3 29.9 µM | A549 > 76.4 µM | NCI-H522 29 µM | SR 18.2 µM | HOP-62 44.4 µM | SF-539 29.4 µM | IGROV-1 44.7 µM | A498 > 100 µM | OVCAR-5 > 100 µM | SNB-19 68.9 µM | SK-MEL-5 32.4 µM | Malme-3M > 81.8 µM | TK-10 > 100 µM | UO-31 > 70.8 µM

COc1cc(Cn2c3ccccc3c3cc(C)c4c(c32)C=CC(C)(CCC=C(C)C)O4)cc2c1[nH]c1ccccc12 (configuration not stated) [CHRESTFOLINE C]
inactive: SW-620 > 100 µM | COLO 205 > 100 µM | M14 > 100 µM | OVCAR-3 > 100 µM | A549 > 100 µM | NCI-H522 > 100 µM | SR > 100 µM | HOP-62 > 100 µM | SF-539 > 100 µM | IGROV-1 > 100 µM | A498 > 100 µM | OVCAR-5 > 100 µM | SNB-19 > 100 µM | SK-MEL-5 > 100 µM | Malme-3M > 100 µM | TK-10 > 100 µM | UO-31 > 100 µM

CC(C)(C)C1=C(Br)C(F)(C(C)(C)C)OP1(=O)c1ccccc1 (configuration not stated)
inactive: SW-620 17.5 µM | COLO 205 16 µM | M14 14.8 µM | OVCAR-3 15.5 µM | DU-145 18 µM | A549 19.3 µM | NCI/ADR-RES 16.4 µM | NCI-H522 15.7 µM | SR 11.9 µM | HOP-62 16.3 µM | SF-539 19.1 µM | IGROV-1 16 µM | A498 24.8 µM | OVCAR-5 20.2 µM | SNB-19 16.4 µM | SK-MEL-5 11 µM | Malme-3M 17.9 µM | TK-10 18.8 µM | UO-31 45.7 µM

COC(=O)N/N=c1\cc(C(=O)Nc2ccc(C)c(C)c2)oc2cc(O)ccc12
inactive: SW-620 > 100 µM | COLO 205 > 100 µM | M14 > 100 µM | OVCAR-3 > 100 µM | A549 > 100 µM | NCI-H522 > 100 µM | SR > 100 µM | HOP-62 > 100 µM | SF-539 > 100 µM | IGROV-1 > 100 µM | A498 > 100 µM | OVCAR-5 > 100 µM | SNB-19 > 100 µM | SK-MEL-5 > 100 µM | Malme-3M > 100 µM | TK-10 > 100 µM | UO-31 > 100 µM
